# What was measured:
# [1] = tested on: K562 CRISPRi or CRISPRa cells; IFITM1, IFITM2, IFITM3; assay: Viability of K562 CRISPRi/CRISPRa cells with modulated IFITM expression (chemical-genetic interaction, IC50 shift); format: cell-based; conditions: for IFITM assistance versus linker length: linker series: BisRoc-1 (PEG11), BisRoc-2 (PEG4), BisRoc-3 (PEG2), rocaglamide (no linker), FIG. 2B
# Description: FIGS. 1A-1E. Longer linker length correlates with greater IFITM assistance in a series of linked rocaglamide analogs. FIG. 1A: Crystal structure of rocaglamide bound to eIF4A1 and polypurine RNA showing adjacent symmetry mates (PDB, 5ZC9). The distance between RocA molecules bound to adjacent eIF4A1 proteins is approximately 14 Å and the solvent exposed amide on RocA offers a handle for chemical modification. FIG. 1B: Chemical structures of select eIF4A1 inhibitors. FIGS. 1C-1D: Viability of K562 CRISPRi (FIG. 1C) or CRISPRa (FIG. 1D) cells expressing sgRNAs treated with BisRoc-1 or rocaglamide. Data represent means of three biological replicates; error bars denote SD. FIG. 1E: Chemical structures of a BisRoc linker length series (see also FIG. 2B).
# FIGS. 2A-2C. IFITM proteins assist the cellular activity of diverse linked chemotypes. FIG. 2A: Heavy atom skeletons of compounds assessed for IFITM assistance (see also FIG. 3 for chemical structures). Compounds were categorized as non-linked chemotypes (compounds 3, 6, and 8; black), linked chemotypes with short linkers (compounds 10 and 13; light gray), or linked chemotypes with long linkers (compounds 15 and 17; medium gray). FIG. 2B: Chemical-genetic interaction map of inhibitors in FIG. 2A with IFITM1, IFTM2, and IFITM3. Potency, as measured by dose-response IC50 in a cell viability assay (see also FIG. 1D for example source data), was normalized to that of non-sgRNA-expressing K562 CRISPRi or CRISPRa cells. Physicochemical properties, including molecular weight (MW) and number of rotatable bonds, with their respective traditional thresholds for drug-likeness are indicated (right). Data represent means of three biological replicates. FIG. 2C: Map of chemical space populated by 301 kinase inhibitors in clinical development (black), 2258 PROTACs reported in the literature (light gray), and 2 linked chemotypes described herein (medium gray). Boundaries represent traditional guidelines for drug-likeness.
# Given the ubiquitous presence of IFITM proteins in cells, we hypothesized that the cellular uptake of other linked inhibitors in the literature could also be assisted by IFITM proteins. While not generally as large as the linked chemotypes described above, PROTACs are likewise composed of two chemical entities covalently attached by a flexible tether (15). […] Thus, we included several PROTACs and their non-linked parent inhibitors in an expanded survey of chemical-genetic interactions with IFITM proteins (FIG. 2A, FIGS. 3A-3B, and FIG. 4). We treated our K562 CRISPRi and CRISPRa cells with these inhibitors and evaluated differences in potency resulting from IFITM protein expression modulation, as measured by half-maximal inhibitory concentration (IC50) shift in a cell viability assay. […] The inverse finding, resistance to linked chemotypes, resulted from gene knockdown (FIG. 2B). Included among these compounds were a systematic linker series of BisRoc-1 analogs (FIG. 1E). […] The same trend was corroborated by the diverse ensemble of all molecules tested (FIG. 2B): the magnitudes of chemical-genetic interactions correlated with inhibitor size (molecular weight) and flexibility (number of rotatable bonds). […] Despite their cellular activities, the physicochemical properties of these linked chemotypes largely violate Lipinski's (1) and Veber's (2) classic guidelines (FIG. 2B and FIG. 4), raising the need for a revised drug design framework that considers IFITM-assisted uptake and other cellular import processes. […]
# KBM7 cells; IFITM2 = conditions: IFITM2 knockout, not validated; cited from earlier work
# [2] = in vivo; cited from earlier work
# [3] = tested on: interferon-induced transmembrane (IFITM) proteins; assay: Genome-scale chemical-genetic identification of uptake pathway; format: cell-based; conditions: genome-scale chemical-genetic approaches
# Description: We devised additional linked inhibitors targeting EIF4A1 (BisRoc-1, molecular weight: 1466 g/mol) whose uptake we predicted would be assisted by IFITM proteins. This uptake pathway should provide a general mechanism by which large, flexibly linked chimeric molecules can gain assisted access to the cytosol, including compounds with mechanisms of action not easily accessible to traditional drug-like molecules.
# MTOR = conditions: cited from earlier work
structure (smiles),measurement,setting,value
COc1ccc([C@@]23Oc4cc(OC)cc(OC)c4[C@]2(O)[C@H](O)[C@H](C(=O)NCCOCCOCCNC(=O)[C@H]2[C@@H](O)[C@@]4(O)c5c(OC)cc(OC)cc5O[C@@]4(c4ccc(OC)cc4)[C@@H]2c2ccccc2)[C@H]3c2ccccc2)cc1 [BisRoc-3],IFITM assistance versus linker length,[1],longer linker lengths correlated with greater IFITM assistance
Cc1sc2c(c1C)C(c1ccc(Cl)cc1)=N[C@@H](CC(=O)NCCCCCCCCNC(=O)COc1cccc3c1C(=O)N(C1CCC(=O)NC1=O)C3=O)c1nnc(C)n1-2 (stereo partly drawn) [dBET6],IFITM2 chemical-genetic interaction,KBM7 cells; IFITM2,statistically significant resistance chemical-genetic interaction
CO[C@H]1C[C@@H]2CC[C@@H](C)[C@@](O)(O2)C(=O)C(=O)N2CCCC[C@H]2C(=O)O[C@H]([C@H](C)C[C@@H]2CC[C@@H](OCCOCc3cn(CCOCCOCCOCCOCCOCCOCCOCCOCCC(=O)NCCCCn4nc(-c5ccc6oc(N)nc6c5)c5c(N)ncnc54)nn3)[C@H](OC)C2)CC(=O)[C@H](C)/C=C(\C)[C@@H](O)[C@@H](OC)C(=O)[C@H](C)C[C@H](C)C=CC=CC=C1C [RapaLink-1],blood-brain barrier penetration,[2],penetrates the blood-brain barrier
same,modulation of cell permeability by IFITM pathway,[3],modulates the cell permeability
same,activity in vivo,MTOR,highly active in vivo
COc1ccc([C@@]23Oc4cc(OC)cc(OC)c4[C@]2(O)[C@H](O)[C@H](C(=O)NCCOCCOCCOCCOCCOCCOCCOCCOCCOCCOCCOCCNC(=O)[C@H]2[C@@H](O)[C@@]4(O)c5c(OC)cc(OC)cc5O[C@@]4(c4ccc(OC)cc4)[C@@H]2c2ccccc2)[C@H]3c2ccccc2)cc1 [BisRoc-1],overall modulation in the cellular activity accounted for by IFITM proteins,"[1]; K562 CRISPRi/a cells, FIG. 1C-1D",6.2 fold
same,IFITM assistance versus linker length,[1],longer linker lengths correlated with greater IFITM assistance
COc1ccc([C@@]23Oc4cc(OC)cc(OC)c4[C@]2(O)[C@H](O)[C@H](C(=O)N(C)C)[C@H]3c2ccccc2)cc1 [rocaglamide],IFITM assistance versus linker length,[1],longer linker lengths correlated with greater IFITM assistance
COc1ccc([C@@]23Oc4cc(OC)cc(OC)c4[C@]2(O)[C@H](O)[C@H](C(=O)NCCOCCOCCOCCOCCNC(=O)[C@H]2[C@@H](O)[C@@]4(O)c5c(OC)cc(OC)cc5O[C@@]4(c4ccc(OC)cc4)[C@@H]2c2ccccc2)[C@H]3c2ccccc2)cc1 [BisRoc-2],IFITM assistance versus linker length,[1],longer linker lengths correlated with greater IFITM assistance

# Source: patent US20260345791A1, “EIF4A INHIBITORS AND USES THEREOF” (The Regents of the University of California, priority 2022, published 2026)
